Targets include Carbonic anhydrase 7 (Homo sapiens, UniProt P43166); Carbonic anhydrase 4 (Homo sapiens, UniProt P22748); Carbonic anhydrase 1 (Homo sapiens, UniProt P00915); Carbonic anhydrase 2 (Homo sapiens, UniProt P00918).
A further assay has as its system Oryctolagus cuniculus. In words: Antiglaucoma activity in hypertonic saline solution-induced New Zealand albino rabbit model of ocular hypertension assessed as reduction in intraocular pressure at 1% administered topically to eye measured after 240 mins by pneumotonometric- method. Format: functional.

Some results are limits rather than exact numbers.

Carbonic anhydrase 7, sequence (P43166 whole entry): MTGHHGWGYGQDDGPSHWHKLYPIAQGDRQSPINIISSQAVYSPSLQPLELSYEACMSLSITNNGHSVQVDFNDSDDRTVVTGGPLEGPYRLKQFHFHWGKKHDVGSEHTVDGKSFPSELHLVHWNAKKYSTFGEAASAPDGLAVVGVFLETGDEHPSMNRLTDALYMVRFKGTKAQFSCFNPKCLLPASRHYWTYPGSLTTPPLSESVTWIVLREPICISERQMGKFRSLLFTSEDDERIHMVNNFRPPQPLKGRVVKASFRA
Carbonic anhydrase 4, sequence (P22748 whole entry): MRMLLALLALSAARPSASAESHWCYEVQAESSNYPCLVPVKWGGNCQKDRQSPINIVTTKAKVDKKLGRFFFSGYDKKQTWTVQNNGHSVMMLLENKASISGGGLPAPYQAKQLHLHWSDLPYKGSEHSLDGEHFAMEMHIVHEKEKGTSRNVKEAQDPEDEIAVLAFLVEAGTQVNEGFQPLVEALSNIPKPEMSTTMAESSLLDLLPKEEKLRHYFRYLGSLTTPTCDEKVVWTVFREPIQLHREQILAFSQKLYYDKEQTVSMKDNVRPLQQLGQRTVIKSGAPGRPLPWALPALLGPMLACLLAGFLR
Carbonic anhydrase 1, sequence (P00915 whole entry): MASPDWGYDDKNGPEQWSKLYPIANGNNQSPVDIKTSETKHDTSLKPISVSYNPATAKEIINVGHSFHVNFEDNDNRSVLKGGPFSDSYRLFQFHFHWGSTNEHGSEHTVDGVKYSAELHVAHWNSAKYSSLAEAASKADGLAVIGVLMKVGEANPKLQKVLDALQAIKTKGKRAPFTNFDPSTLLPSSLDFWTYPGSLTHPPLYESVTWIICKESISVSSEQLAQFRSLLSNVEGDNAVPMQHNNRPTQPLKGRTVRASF
Description for Carbonic anhydrase 1: Inhibition of recombinant human carbonic anhydrase 1 incubated for 6 hrs prior to testing measured for 10 to 100 secs by phenol red-based stopped-flow CO2 hydration assay
Description for Carbonic anhydrase 2: Inhibition of recombinant human carbonic anhydrase 2 incubated for 6 hrs prior to testing measured for 10 to 100 secs by phenol red-based stopped-flow CO2 hydration assay
Description for Carbonic anhydrase 4: Inhibition of recombinant human carbonic anhydrase 4 incubated for 6 hrs prior to testing measured for 10 to 100 secs by phenol red-based stopped-flow CO2 hydration assay
Description for Carbonic anhydrase 7: Inhibition of recombinant human carbonic anhydrase 7 incubated for 6 hrs prior to testing measured for 10 to 100 secs by phenol red-based stopped-flow CO2 hydration assay

On to `COc1ccc(N/N=C(\C(C)=O)C(=O)Nc2ccc(S(N)(=O)=O)cc2)cc1`, for which the Ki – broadly, a measure of affinity in units of concentration, obtained from inhibition or displacement – at Carbonic anhydrase 7 was 3.59 µM; at Carbonic anhydrase 4, over 10 µM; on Carbonic anhydrase 1 it was 0.704 µM; at Carbonic anhydrase 2, 0.273 µM.

For the compound `CC(=O)/C(=C\c1ccccc1)C(=O)Nc1ccc(S(N)(=O)=O)cc1`, the Ki at Carbonic anhydrase 7 was 0.0444 µM; on Carbonic anhydrase 4, 0.958 µM; on Carbonic anhydrase 1, 0.0687 µM; at Carbonic anhydrase 2, 0.0044 µM.

In the case of `CC(=O)/C(=N\Nc1cccc([N+](=O)[O-])c1)C(=O)Nc1ccc(S(N)(=O)=O)cc1`, the Ki at Carbonic anhydrase 7 was 0.792 µM; at Carbonic anhydrase 4, over 10 µM; at Carbonic anhydrase 1, 0.751 µM; on Carbonic anhydrase 2, 0.0714 µM.

Regarding `COc1ccc(/C=C(\C(C)=O)C(=O)Nc2ccc(S(N)(=O)=O)cc2)cc1`, the Ki on Carbonic anhydrase 7 turned out to be 0.0031 µM; at Carbonic anhydrase 4, 0.609 µM; at Carbonic anhydrase 1, 0.0153 µM; on Carbonic anhydrase 2, 0.00045 µM. Also, in the assay on Oryctolagus cuniculus, the Activity stood at 1.5 mmHg.

On to `CC(=O)/C(=C\c1ccc(F)cc1Cl)C(=O)Nc1ccc(S(N)(=O)=O)cc1`, for which the Ki is 0.0235 µM on Carbonic anhydrase 7, 0.222 µM on Carbonic anhydrase 4, 0.0527 µM on Carbonic anhydrase 1 and 0.0056 µM at Carbonic anhydrase 2.

For the compound `CC(=O)/C(=C\c1cccs1)C(=O)Nc1ccc(S(N)(=O)=O)cc1`, the inhibitory constant (Ki) came to 0.0053 µM at Carbonic anhydrase 7, 0.81 µM on Carbonic anhydrase 4, 0.0491 µM on Carbonic anhydrase 1 and 0.0029 µM on Carbonic anhydrase 2.

As for `CC(=O)/C(=C\c1ccc(Cl)cc1)C(=O)Nc1ccc(S(N)(=O)=O)cc1`, the Ki was determined as 0.0043 µM at Carbonic anhydrase 7, 0.145 µM at Carbonic anhydrase 4, 0.0411 µM on Carbonic anhydrase 1 and 0.00061 µM on Carbonic anhydrase 2. In addition, the Activity with Oryctolagus cuniculus amounted to 1.3 mmHg.

With `COc1ccc(N/N=C(\Cl)C(=O)Nc2ccc(S(N)(=O)=O)cc2)cc1`, the inhibition constant Ki at Carbonic anhydrase 7 came out at 0.0552 µM; on Carbonic anhydrase 4, 6.42 µM; at Carbonic anhydrase 1, 0.0861 µM; on Carbonic anhydrase 2, 0.0211 µM.

As for `NS(=O)(=O)c1ccc(NC(=O)/C(Cl)=N/Nc2ccccc2)cc1`, the Ki at Carbonic anhydrase 7 was determined as 0.0681 µM; at Carbonic anhydrase 4, 7.36 µM; at Carbonic anhydrase 1, 0.227 µM; at Carbonic anhydrase 2 it was 0.0406 µM.

For `CC(=O)/C(=N\Nc1ccc(Br)cc1)C(=O)Nc1ccc(S(N)(=O)=O)cc1`, the Ki is over 10 µM on Carbonic anhydrase 7, over 10 µM at Carbonic anhydrase 4, over 10 µM at Carbonic anhydrase 1 and 0.371 µM at Carbonic anhydrase 2.

For `CC(=O)/C(=N\Nc1ccc(Cl)cc1)C(=O)Nc1ccc(S(N)(=O)=O)cc1`, the Ki on Carbonic anhydrase 7 was 1.69 µM; on Carbonic anhydrase 4, over 10 µM; on Carbonic anhydrase 1, 2.64 µM; at Carbonic anhydrase 2, 0.0052 µM.

For `NS(=O)(=O)c1ccc(NC(=O)/C(Cl)=N/Nc2ccc(F)cc2)cc1`, the Ki on Carbonic anhydrase 7 is 0.0466 µM; on Carbonic anhydrase 4 it was 7.38 µM; at Carbonic anhydrase 1, 0.296 µM; on Carbonic anhydrase 2 it was 0.0348 µM.

With `NS(=O)(=O)c1ccc(NC(=O)/C(Cl)=N/Nc2ccc(Br)cc2)cc1`, the Ki on Carbonic anhydrase 7 was 1.03 µM; on Carbonic anhydrase 4 it was over 10 µM; at Carbonic anhydrase 1 it was 0.926 µM; at Carbonic anhydrase 2, 0.262 µM.

For `CC(=O)/C(=N\Nc1ccccc1)C(=O)Nc1ccc(S(N)(=O)=O)cc1`, the Ki on Carbonic anhydrase 7 was 0.647 µM; on Carbonic anhydrase 4, over 10 µM; on Carbonic anhydrase 1 it was 0.0822 µM; at Carbonic anhydrase 2 it was 0.0043 µM.

With `CC(=O)/C(=C\c1cccc([N+](=O)[O-])c1)C(=O)Nc1ccc(S(N)(=O)=O)cc1`, the Ki was 0.0463 µM on Carbonic anhydrase 7, 0.387 µM on Carbonic anhydrase 4, 0.0755 µM on Carbonic anhydrase 1 and 0.0069 µM at Carbonic anhydrase 2.

Turning to `CC(=O)/C(=C\c1ccccc1Cl)C(=O)Nc1ccc(S(N)(=O)=O)cc1`, the Ki at Carbonic anhydrase 7 came out at 0.0029 µM; at Carbonic anhydrase 4 it was 0.383 µM; at Carbonic anhydrase 1, 0.0073 µM; at Carbonic anhydrase 2 it was 0.00036 µM. The Activity in the assay on Oryctolagus cuniculus is 2 mmHg.

In the case of `CC(=O)CC(=O)Nc1ccc(S(N)(=O)=O)cc1`, the Ki was 0.273 µM on Carbonic anhydrase 7, 0.885 µM on Carbonic anhydrase 4, 0.0692 µM on Carbonic anhydrase 1 and 0.0395 µM on Carbonic anhydrase 2.

As for `CC(=O)/C(=N\Nc1ccc(C#N)cc1)C(=O)Nc1ccc(S(N)(=O)=O)cc1`, the Ki is 0.762 µM on Carbonic anhydrase 7, over 10 µM at Carbonic anhydrase 4, 0.513 µM on Carbonic anhydrase 1 and 0.0522 µM on Carbonic anhydrase 2.

As for `NS(=O)(=O)c1ccc(NC(=O)/C(Cl)=N/Nc2ccc(Cl)cc2)cc1`, the Ki at Carbonic anhydrase 7 worked out at 0.0061 µM; at Carbonic anhydrase 4, 0.907 µM; on Carbonic anhydrase 1 it was 0.0441 µM; at Carbonic anhydrase 2 it was 0.003 µM.

Take `CC(=O)/C(=N\Nc1ccc(F)cc1)C(=O)Nc1ccc(S(N)(=O)=O)cc1`: the Ki at Carbonic anhydrase 7 was 3.32 µM; on Carbonic anhydrase 4, over 10 µM; at Carbonic anhydrase 1 it was 2.67 µM; at Carbonic anhydrase 2 it was 0.0081 µM.

In the case of `COc1ccc(N/N=C(\C(C)=O)C(=O)Nc2ccc(S(N)(=O)=O)cc2)cc1OC`, the Ki at Carbonic anhydrase 7 came to 0.0044 µM; at Carbonic anhydrase 4 it was 1.48 µM; on Carbonic anhydrase 1, 0.0593 µM; at Carbonic anhydrase 2, 0.005 µM.

The values are drawn from ChEMBL document CHEMBL4402561, “Discovery of Potent Dual-Tailed Benzenesulfonamide Inhibitors of Human Carbonic Anhydrases Implicated in Glaucoma and in Vivo Profiling of Their Intraocular Pressure-Lowering Action” (J Med Chem, 2020).
